Measured values: a compilation of properties of binary mixtures (doi:10.1021/je3004904)

Assay: xn = mol fraction of the nth substance listed
Conditions: 101 kPa

Cn1cc[nH+]c1.[Cl-] + Cl[Al](Cl)Cl
Conditions | electrical conductivity, x2 = 0.643 [S/m] | electrical conductivity, x2 = 0.667 [S/m] | viscosity, x2 = 0.643 [mPa·s] | viscosity, x2 = 0.667 [mPa·s]
293.15 K | – | – | 78.3 | 50.8
298.15 K | 0.456 | 0.601 | 59.41 | 40.23
303.15 K | 0.553 | – | 46.88 | –
308.15 K | 0.661 | 0.827 | 38.17 | 27.36
313.15 K | – | 0.961 | – | 23.28
318.15 K | 0.909 | 1.1 | 27.17 | 20.13
323.15 K | 1.05 | 1.25 | 23.58 | 17.66
328.15 K | 1.2 | 1.4 | 20.75 | 15.67
333.15 K | 1.36 | 1.56 | 18.5 | 14.06
338.15 K | 1.53 | 1.74 | 16.67 | 12.72
343.15 K | 1.7 | 1.92 | 15.15 | 11.61

[Cl][Al]([Cl])[Cl] + CCCC[n+]1ccn(C)c1.[Cl-]
Conditions | electrical conductivity [S/m] | viscosity [mPa·s]
293.15 K, x1 = 0.5 | – | 41.63
293.15 K, x1 = 0.5238 | – | 38.28
293.15 K, x1 = 0.545 | – | 35.03
293.15 K, x1 = 0.5454 | – | 34.99
293.15 K, x1 = 0.5653 | – | 32.26
293.15 K, x1 = 0.583 | – | 30.37
293.15 K, x1 = 0.5834 | – | 30.34
293.15 K, x1 = 0.6001 | – | 28.34
293.15 K, x1 = 0.615 | – | 26.91
293.15 K, x1 = 0.6154 | – | 26.89
293.15 K, x1 = 0.6296 | – | 25.31
293.15 K, x1 = 0.6429 | – | 24.35
293.15 K, x1 = 0.6551 | – | 23.44
293.15 K, x1 = 0.6667 | – | 22.54
298.15 K, x1 = 0.583 | 0.947 | 25.24
298.15 K, x1 = 0.615 | 0.931 | 22.59
298.15 K, x1 = 0.643 | 0.919 | 20.62
298.15 K, x1 = 0.667 | 0.912 | 19.42
303.15 K, x1 = 0.5 | – | 28.33
303.15 K, x1 = 0.545 | 1.14 | 24.35
303.15 K, x1 = 0.5454 | – | 24.32
303.15 K, x1 = 0.583 | 1.1 | 21.38
303.15 K, x1 = 0.5834 | – | 21.36
303.15 K, x1 = 0.6001 | – | 20.2
303.15 K, x1 = 0.615 | 1.07 | 19.34
303.15 K, x1 = 0.6154 | – | 19.33
303.15 K, x1 = 0.6296 | – | 18.29
303.15 K, x1 = 0.6551 | – | 17.1
303.15 K, x1 = 0.6667 | – | 16.73
308.15 K, x1 = 0.545 | 1.32 | 20.84
308.15 K, x1 = 0.583 | 1.26 | 18.31
308.15 K, x1 = 0.643 | 1.21 | 15.39
308.15 K, x1 = 0.667 | 1.2 | 14.59
313.15 K, x1 = 0.5 | – | 20.76
313.15 K, x1 = 0.5238 | – | 19.48
313.15 K, x1 = 0.545 | 1.51 | 18.1
313.15 K, x1 = 0.5653 | – | 16.92
313.15 K, x1 = 0.583 | 1.44 | 16.03
313.15 K, x1 = 0.5834 | – | 16.01
313.15 K, x1 = 0.6001 | – | 15.28
313.15 K, x1 = 0.615 | 1.39 | 14.61
313.15 K, x1 = 0.6296 | – | 13.96
313.15 K, x1 = 0.6429 | – | 13.53
313.15 K, x1 = 0.643 | 1.36 | 13.54
313.15 K, x1 = 0.6551 | – | 13.12
313.15 K, x1 = 0.6667 | – | 12.87
313.15 K, x1 = 0.667 | 1.34 | 12.87
318.15 K, x1 = 0.545 | 1.71 | 15.92
318.15 K, x1 = 0.583 | 1.63 | 14.15
318.15 K, x1 = 0.615 | 1.57 | 12.78
318.15 K, x1 = 0.643 | 1.52 | 12.04
323.15 K, x1 = 0.5238 | – | 15.16
323.15 K, x1 = 0.545 | 1.93 | 14.15
323.15 K, x1 = 0.5653 | – | 13.29
323.15 K, x1 = 0.583 | 1.83 | 12.61
323.15 K, x1 = 0.5834 | – | 12.6
323.15 K, x1 = 0.6001 | – | 12.09
323.15 K, x1 = 0.615 | 1.76 | 11.56
323.15 K, x1 = 0.6154 | – | 11.55
323.15 K, x1 = 0.6429 | – | 10.78
323.15 K, x1 = 0.643 | 1.69 | 10.8
323.15 K, x1 = 0.6551 | – | 10.48
323.15 K, x1 = 0.6667 | – | 10.17
323.15 K, x1 = 0.667 | 1.66 | 10.17
328.15 K, x1 = 0.545 | 2.15 | 12.7
328.15 K, x1 = 0.583 | 2.04 | 11.34
328.15 K, x1 = 0.615 | 1.95 | 10.45
328.15 K, x1 = 0.667 | 1.83 | 9.05
333.15 K, x1 = 0.5 | – | 12.95
333.15 K, x1 = 0.545 | 2.39 | 11.49
333.15 K, x1 = 0.5454 | – | 11.47
333.15 K, x1 = 0.5653 | – | 10.83
333.15 K, x1 = 0.583 | 2.26 | 10.29
333.15 K, x1 = 0.5834 | – | 10.28
333.15 K, x1 = 0.6154 | – | 9.49
333.15 K, x1 = 0.6429 | – | 8.88
333.15 K, x1 = 0.643 | 2.07 | 8.88
333.15 K, x1 = 0.6551 | – | 8.63
333.15 K, x1 = 0.6667 | – | 8.23
333.15 K, x1 = 0.667 | 2.01 | 8.23
338.15 K, x1 = 0.545 | 2.63 | 10.48
338.15 K, x1 = 0.583 | 2.49 | 9.4
338.15 K, x1 = 0.615 | 2.38 | 8.69
338.15 K, x1 = 0.643 | 2.28 | 8.14
338.15 K, x1 = 0.667 | 2.2 | 7.43
343.15 K, x1 = 0.5 | – | 10.78
343.15 K, x1 = 0.5238 | – | 10.26
343.15 K, x1 = 0.545 | 2.88 | 9.63
343.15 K, x1 = 0.5653 | – | 9.09
343.15 K, x1 = 0.583 | 2.73 | 8.64
343.15 K, x1 = 0.6001 | – | 8.34
343.15 K, x1 = 0.615 | 2.6 | 8.01
343.15 K, x1 = 0.6154 | – | 8.01
343.15 K, x1 = 0.6296 | – | 7.73
343.15 K, x1 = 0.643 | 2.5 | 7.5
343.15 K, x1 = 0.6551 | – | 7.209
343.15 K, x1 = 0.6667 | – | 6.824
343.15 K, x1 = 0.667 | 2.4 | 6.824
